Test results: ChEMBL document CHEMBL5620406, “Synthesis and biological evaluation of novel pyrazole amides as potent mitochondrial complex I inhibitors” (Eur J Med Chem, 2023)
Active and inactive are the calls of the source. The rule behind the calls is not given here.

How the values were obtained:
[1] = Acute toxicity in BALB/c mouse assessed as decrease in behavioral activity at 68 mg/kg, ip measured for 6 days; type: organism-based; details: in vivo, 144 h, time 6 day
HCT-116 [2] = experiment: Induction of ROS generation in human HCT-116 cells at 0.5 nM measured for 30 mins by DCFDA-staining based flow cytometry analysis; type: functional, cell-based
[3] = Acute toxicity in BALB/c mouse assessed as effect on TP level at 68 mg/kg, ip measured on day 14; type: organism-based; details: in vivo, 336 h, time 14 day
HCT-116 [4] = experiment: Induction of mitochondrial dysfunction in human HCT-116 cells assessed as increase in extracellular acidification rate at 2 to 10 nM incubated for 24 hrs by Seahorse XFe24 analyzer; type: functional, cell-based; details: dose 2-10 nM
[5] = Efflux ratio of apparent permeability across basolateral to apical membrane to apical to basolateral membrane in human Caco-2 cells incubated for 120 mins by LC-MS/MS analysis; type: ADME, cell-based
[6] = Toxicity in NOD-SCID mouse xenografted with human KG-1 cells assessed as effect on MCV level at 5 mg/kg, ip qd administered 5 consecutive days per week for 24 days; type: organism-based; details: in vivo, 576 h, time 24 day
HCT-116 [7] = experiment: Antiproliferative activity against human HCT-116 cells assessed as inhibition of cell growth at 0.1 nM incubated for 96 hrs in presence of galactose by MTT assay; type: functional, cell-based
[8] = Toxicity in NOD-SCID mouse xenografted with human KG-1 cells assessed as effect on MPV at 5 mg/kg, ip qd administered 5 consecutive days per week for 24 days; type: organism-based; details: in vivo, 576 h, time 24 day
[9] = Acute toxicity in BALB/c mouse assessed as effect on ALP level at 68 mg/kg, ip measured on day 14; type: organism-based; details: in vivo, 336 h, time 14 day
[10] = Toxicity in NOD-SCID mouse xenografted with human KG-1 cells assessed as effect on WBC count at 5 mg/kg, ip qd administered 5 consecutive days per week for 24 days; type: organism-based; details: in vivo, 576 h, time 24 day
[11] = Toxicity in NOD-SCID mouse xenografted with human KG-1 cells assessed as effect on ALT level at 5 mg/kg, ip qd administered 5 consecutive days per week for 24 days; type: organism-based; details: in vivo, 576 h, time 24 day
HCT-116 [12] = experiment: Induction of mitochondrial dysfunction in human HCT-116 cells assessed as inhibition of OXPHOS at 2 to 10 nM incubated for 24 hrs by Seahorse XFe24 analyzer; type: functional, cell-based; details: dose 2-10 nM
KG-1 [13] = experiment: Induction of ROS generation in human KG-1 cells measured for 30 mins by DCFDA-staining based flow cytometry analysis; type: functional, cell-based; details: dose <= 0.5 nM
[14] = Toxicity in NOD-SCID mouse xenografted with human KG-1 cells assessed as effect on GLU level at 5 mg/kg, ip qd administered 5 consecutive days per week for 24 days; type: organism-based; details: in vivo, 576 h, time 24 day
[15] = Toxicity in NOD-SCID mouse xenografted with human KG-1 cells assessed as effect on CHO2 level at 5 mg/kg, ip qd administered 5 consecutive days per week for 24 days; type: organism-based; details: in vivo, 576 h, time 24 day
[16] = Toxicity in NOD-SCID mouse xenografted with human KG-1 cells assessed as effect on CREA level at 5 mg/kg, ip qd administered 5 consecutive days per week for 24 days; type: organism-based; details: in vivo, 576 h, time 24 day
[17] = Acute toxicity in BALB/c mouse assessed as effect on ALB level at 68 mg/kg, ip measured on day 14; type: organism-based; details: in vivo, 336 h, time 14 day
[18] = Toxicity in NOD-SCID mouse xenografted with human KG-1 cells assessed as effect on liver damage at 5 mg/kg, ip qd administered 5 consecutive days per week for 24 days by H and E staining based analysis; type: organism-based; details: in vivo, 576 h, time 24 day
[19] = Acute toxicity in BALB/c mouse assessed as kidney damage at 40 to 68 mg/kg, ip measured on day 14 by H and E staining based analysis; type: organism-based; details: in vivo, 336 h, dose 40-68 mg/kg, time 14 day
[20] = Acute toxicity in BALB/c mouse assessed as liver damage at 40 to 68 mg/kg, ip measured on day 14 by H and E staining based analysis; type: organism-based; details: in vivo, 336 h, dose 40-68 mg/kg, time 14 day
KG-1 [21] = experiment: Induction of ROS generation in human KG-1 cells at 1 nM measured for 30 mins by DCFDA-staining based flow cytometry analysis; type: functional, cell-based
HCT-116 [22] = experiment: Induction of ROS generation in human HCT-116 cells measured for 30 mins by DCFDA-staining based flow cytometry analysis; type: functional, cell-based; details: dose <= 0.5 nM
HCT-116 [23] = experiment: Antiproliferative activity against human HCT-116 cells assessed as inhibition of cell growth incubated for 96 hrs by MTT assay; type: functional, cell-based; details: HCT-116, 96 h
HCT-116 [24] = experiment: Induction of mitochondrial dysfunction in human HCT-116 cells assessed as attenuation of maximum oxygen consumption rate incubated for 24 hrs by Seahorse XFe24 analyzer; type: functional, cell-based; details: dose 2-10 nM
Homo sapiens = species: Homo sapiens; experiment: Inhibition of mitochondrial complex I (unknown origin) at 1 uM incubated for 15 mins by microplate reader analysis relative to control
[25] = Toxicity in NOD-SCID mouse xenografted with human KG-1 cells assessed as effect on BILT level at 5 mg/kg, ip qd administered 5 consecutive days per week for 24 days; type: organism-based; details: in vivo, 576 h, time 24 day
[26] = Apparent permeability across apical to basolateral side in human Caco-2 cells incubated for 120 mins by LC-MS/MS analysis; type: ADME, cell-based
[27] = Acute toxicity in BALB/c mouse assessed as effect on BUN level at 68 mg/kg, ip measured on day 14; type: organism-based; details: in vivo, 336 h, time 14 day
Cytochrome P450 2C9 = Cytochrome P450 2C9 (Homo sapiens, UniProt P11712); experiment: Inhibition of CYP2C9 in human liver microsomes incubated for 10 mins in presence of NADPH by LC/MS/MS analysis; type: ADME, Microsome
Chain of Cytochrome P450 2C9 (P11712 whole entry): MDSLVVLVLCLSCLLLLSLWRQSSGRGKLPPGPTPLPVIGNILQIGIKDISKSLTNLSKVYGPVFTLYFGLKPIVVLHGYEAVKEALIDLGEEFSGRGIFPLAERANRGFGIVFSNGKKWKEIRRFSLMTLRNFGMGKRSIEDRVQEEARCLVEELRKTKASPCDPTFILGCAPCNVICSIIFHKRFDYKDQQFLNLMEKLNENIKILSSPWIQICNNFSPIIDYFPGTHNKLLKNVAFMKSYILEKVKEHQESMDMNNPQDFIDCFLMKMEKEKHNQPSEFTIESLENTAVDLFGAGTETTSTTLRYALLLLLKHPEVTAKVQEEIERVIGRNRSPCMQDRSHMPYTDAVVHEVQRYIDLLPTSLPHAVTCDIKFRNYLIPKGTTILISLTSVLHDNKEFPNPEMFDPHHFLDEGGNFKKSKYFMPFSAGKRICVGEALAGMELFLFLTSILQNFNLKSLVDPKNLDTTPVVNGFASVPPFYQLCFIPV

[28] = Toxicity in NOD-SCID mouse xenografted with human KG-1 cells assessed as effect on GLB level at 5 mg/kg, ip qd administered 5 consecutive days per week for 24 days; type: organism-based; details: in vivo, 576 h, time 24 day
[29] = Toxicity in NOD-SCID mouse xenografted with human KG-1 cells assessed as effect on TRIGL level at 5 mg/kg, ip qd administered 5 consecutive days per week for 24 days; type: organism-based; details: in vivo, 576 h, time 24 day
[30] = Toxicity in NOD-SCID mouse xenografted with human KG-1 cells assessed as effect on RDV at 5 mg/kg, ip qd administered 5 consecutive days per week for 24 days; type: organism-based; details: in vivo, 576 h, time 24 day
[31] = Toxicity in NOD-SCID mouse xenografted with human KG-1 cells assessed as effect on kidney damage at 5 mg/kg, ip qd administered 5 consecutive days per week for 24 days by H and E staining based analysis; type: organism-based; details: in vivo, 576 h, time 24 day
[32] = Toxicity in NOD-SCID mouse xenografted with human KG-1 cells assessed as effect on ALB level at 5 mg/kg, ip qd administered 5 consecutive days per week for 24 days; type: organism-based; details: in vivo, 576 h, time 24 day
Cytochrome P450 3A4 = Cytochrome P450 3A4 (Homo sapiens, UniProt P08684); experiment: Inhibition of CYP3A4 in human liver microsomes incubated for 5 mins in presence of NADPH by LC/MS/MS analysis; type: ADME, Microsome
Chain of Cytochrome P450 3A4 (P08684 whole entry): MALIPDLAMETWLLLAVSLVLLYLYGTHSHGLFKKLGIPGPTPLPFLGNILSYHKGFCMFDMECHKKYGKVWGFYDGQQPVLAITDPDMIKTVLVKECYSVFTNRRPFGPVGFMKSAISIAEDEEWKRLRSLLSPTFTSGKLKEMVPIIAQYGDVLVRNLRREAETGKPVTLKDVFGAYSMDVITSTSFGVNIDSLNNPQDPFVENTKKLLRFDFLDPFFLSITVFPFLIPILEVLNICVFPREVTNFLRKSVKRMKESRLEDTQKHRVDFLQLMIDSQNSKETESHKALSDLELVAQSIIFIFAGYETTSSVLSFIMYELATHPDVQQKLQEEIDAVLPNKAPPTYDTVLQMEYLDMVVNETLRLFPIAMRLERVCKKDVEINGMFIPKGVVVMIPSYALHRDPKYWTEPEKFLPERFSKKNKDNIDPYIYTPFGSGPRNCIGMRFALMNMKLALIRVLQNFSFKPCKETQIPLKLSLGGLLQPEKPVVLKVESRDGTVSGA

[33] = Toxicity in NOD-SCID mouse xenografted with human KG-1 cells assessed as effect on PLT level at 5 mg/kg, ip qd administered 5 consecutive days per week for 24 days; type: organism-based; details: in vivo, 576 h, time 24 day
HCT-116 [34] = experiment: Induction of mitochondrial dysfunction in human HCT-116 cells assessed as attenuation of oxygen consumption rate at 2 nM incubated for 24 hrs by Seahorse XFe24 analyzer; type: functional, cell-based

Structure (SMILES) | Activity [1] | Activity (HCT-116 [2]) | Activity [3] | Activity (HCT-116 [4]) | efflux ratio at 2 h [5] | Activity [6] | Activity (HCT-116 [7]) | Activity [8] | Activity [9] | Activity [10] | Activity [11] | Activity (HCT-116 [12]) | Activity (KG-1 [13]) | Activity [14] | Activity [15] | Activity [16] | Activity [17] | Activity [18] | Activity [19] | Activity [20] | other results
Cc1cc(C(=O)Nc2ccc(C(F)(F)F)cc2)nn1Cc1cccc(N2CCN(C(=O)C3CC3)CC2)c1 | Non-Toxic | Active | Non-Toxic | Active | 0.53 | Non-Toxic | Active | Non-Toxic | Non-Toxic | Non-Toxic | Non-Toxic | Active | Dose-Dependent Effect | Non-Toxic | Non-Toxic | Non-Toxic | Non-Toxic | Non-Toxic | Non-Toxic | Non-Toxic | Activity (KG-1 [21]): Active; Activity (HCT-116 [22]): Dose-Dependent Effect; IC50 (HCT-116 [23]): 0.52 nM; Activity (HCT-116 [24]): Dose-Dependent Effect; inhibition (Homo sapiens): 55.4%; Activity [25]: Non-Toxic; Papp A→B at 2 h [26]: 5.83 ×10⁻⁶ cm/s; Activity [27]: Non-Toxic; IC50 (Cytochrome P450 2C9): 1010 nM; Activity [28]: Non-Toxic; Activity [29]: Non-Toxic; Activity [30]: Non-Toxic; Activity [31]: Non-Toxic; Activity [32]: Non-Toxic; IC50 (Cytochrome P450 3A4): 7480 nM; Activity [33]: Non-Toxic; Activity (HCT-116 [34]): Active
Cc1cc(C(=O)Nc2ccc(OC(F)(F)F)cc2)nn1Cc1cccc(N2CCN(C(=O)C3CC3)CC2)c1 | Non-Toxic | Active | Non-Toxic | Active | 0.57 | Non-Toxic | Active | Non-Toxic | Non-Toxic | Non-Toxic | Non-Toxic | Active | Dose-Dependent Effect | Non-Toxic | Non-Toxic | Non-Toxic | Non-Toxic | Non-Toxic | Non-Toxic | Non-Toxic | Activity (KG-1 [21]): Active; Activity (HCT-116 [22]): Dose-Dependent Effect; IC50 (HCT-116 [23]): 1.02 nM; Activity (HCT-116 [24]): Dose-Dependent Effect; inhibition (Homo sapiens): 48.6%; Activity [25]: Non-Toxic; Papp A→B at 2 h [26]: 5.74 ×10⁻⁶ cm/s; Activity [27]: Non-Toxic; IC50 (Cytochrome P450 2C9): 1830 nM; Activity [28]: Non-Toxic; Activity [29]: Non-Toxic; Activity [30]: Non-Toxic; Activity [31]: Non-Toxic; Activity [32]: Non-Toxic; IC50 (Cytochrome P450 3A4): 6990 nM; Activity [33]: Non-Toxic; Activity (HCT-116 [34]): Active
